Results published in patent US10688093B2, “Methods, compositions, and uses of novel Fyn kinase inhibitors” (priority 2015, dated 2020).

Target: full-length recombinant human FYN A (Homo sapiens (Human), UniProt P06241)
Assay: ADP-Glo Kinase Assay of FYN kinase inhibition
Format: biochemical
How it was run: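 ADP-Glo read-out of peptide phosphorylation after 90 min RT with 12.5 pmol ATP and 100 pg 12-mer substrate. Enzyme was N-GST full-length human FYN A from insect cells, 3 pg, pre-incubated 30 min with compound, 10 points from 10 μM top, 3-fold steps; IC50 from curve.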

[1] = primary screen, initial compounds
[2] = secondary screen, re-synthesized and expanded compounds

Sequence of full-length recombinant human FYN A (P06241 whole entry): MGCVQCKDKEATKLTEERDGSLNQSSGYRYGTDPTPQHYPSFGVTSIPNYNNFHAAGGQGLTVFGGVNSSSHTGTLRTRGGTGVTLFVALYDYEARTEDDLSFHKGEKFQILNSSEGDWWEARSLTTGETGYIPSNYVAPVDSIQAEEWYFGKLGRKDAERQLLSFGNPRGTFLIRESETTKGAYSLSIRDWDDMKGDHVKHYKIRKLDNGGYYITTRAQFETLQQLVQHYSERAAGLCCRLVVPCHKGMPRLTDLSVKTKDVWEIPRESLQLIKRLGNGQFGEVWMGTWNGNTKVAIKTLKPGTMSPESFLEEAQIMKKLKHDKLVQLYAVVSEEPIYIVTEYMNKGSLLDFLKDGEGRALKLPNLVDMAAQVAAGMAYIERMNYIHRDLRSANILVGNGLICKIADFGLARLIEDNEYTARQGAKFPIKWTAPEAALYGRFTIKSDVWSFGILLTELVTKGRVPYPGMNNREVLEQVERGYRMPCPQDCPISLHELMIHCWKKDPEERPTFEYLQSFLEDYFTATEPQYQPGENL

SMILES	IC50 [1]	IC50 [2]
CCOc1cccc(-c2cn3c(-c4ccc(O)c(OC)c4)cnc3cn2)c1 [388_0314_0205, 4-[6-(3-ethoxyphenyl)imidazo[1,2-a]pyrazin-3-yl]-2-methoxy-phenol]	1360 nM	–
COc1cc(-c2cnc3cnc(-c4ccc(C(=O)NCCN(C)C)cc4)cn23)ccc1O [388_0314_0327, N-(2-dimethylamino-ethyl)-4-[3-(4-hydroxy-3-methoxy-phenyl)imidazo [1,2-a]pyrazin-6-yl]benzamide]	440 nM	–
COc1cc(-c2cnc3cnc(-c4ccccc4Cl)cn23)ccc1O [388_0314_4027, 4-[6-(2-chlorophenyl)imidazo[1,2-a]pyrazin-3-yl]-2-methoxy-phenol]	2540 nM	–
COc1cc(-c2cnc3cnc(-c4ccc(N)nc4)cn23)ccc1O [388_0314_7905, 4-[6-(6-amino-3-pyridyl)imidazo [1,2-a]pyrazin-3-yl]-2-methoxy-phenol]	1410 nM	–
COc1cc(-c2cnc3cnc(-c4cnn(C)c4)cn23)ccc1O [388_0314_8400, 2-methoxy-4-[6-(1-methylpyrazol-4-yl)imidazo[1,2-a]pyrazin-3-yl]phenol]	746 nM	–
CC(=O)c1cccc(-c2cnc3cnc(-c4ccc(C(=O)NCCN(C)C)cc4)cn23)c1 [388_4145_0327, 4-[3-(3-acetylphenyl)imidazo[1,2-a]pyrazin-6-yl]-N-(2-dimethyl-aminoethyl) benzamide]	4070 nM	–
Oc1ccc(-c2cn3c(-c4cccs4)cnc3cn2)cc1 [388_4147_0080, 4-[3-(2-thienyl)imidazo [1,2-a]pyrazin-6-yl]phenol]	6250 nM	–
CN(C)CCNC(=O)c1ccc(-c2cn3c(-c4cccs4)cnc3cn2)cc1 [388_4147_0327, N-(2-dimethylamino-ethyl)-4-[3-(2-thienyl)imidazo [1,2-a]pyrazin-6-yl]benzamide]	8520 nM	–
c1csc(-c2cn3c(-c4cccs4)cnc3cn2)c1 [388_4147_4147, 3,6-bis(2-thienyl)imidazo [1,2-a]pyrazine]	5030 nM	–
Nc1ccc(-c2cn3c(-c4cccs4)cnc3cn2)cn1 [388_4147_7905, 5-[3-(2-thienyl)imidazo [1,2-a]pyrazin-6-yl]pyridin-2-amine]	8160 nM	–
COc1cc(OC)cc(-c2cnc3cnc(-c4ccc(C(=O)NCCCN(C)C)cc4)cn23)c1 [388_7492_0180, 4-[3-(3,5-dimethoxyphenyl)imidazo[1,2-a]pyrazin-6-yl]-N-[3-(dimethyl-amino)propyl] benzamide]	6690 nM	–
CCCN1CCc2nc(Nc3cc(OC)c(OC)c(OC)c3)ncc2C1 [582_9377_5632, 6-propyl-N-(3,4,5-trimethoxy-phenyl)-7,8-dihydro-5H-pyrido[4,3-d]pyrimidin-2-amine]	14700 nM	–
CCNC(=O)N1CCc2nc(Nc3cc(OC)c(OC)c(OC)c3)ncc2C1 [582_9377_5725, N-ethyl-2-(3,4,5-trimethoxy-anilino)-7,8-dihydro-5H-pyrido[4,3-d]pyrimidine-6-carboxamide]	4250 nM	–
COc1ccccc1C(=O)N1Cc2cnc(Nc3cccc(N(C)C)c3)nc2C1 [585_9372_5053, [2-[3-(dimethylamino)anilino]-5,7-dihydropyrrolo [3,4-d]pyrimidin-6-yl]-(2-methoxyphenyl) methanone]	10100 nM	–
c1cc(-c2cnc3ccc(NCc4ccc5c(c4)OCO5)nn23)ccn1 [BF000146108, N-(1,3-benzodioxol-5-ylmethyl)-3-(4-pyridyl)-imidazo[1,2-b]pyridazin-6-amine]	–	297 nM
COc1ccc(-c2cnc3ccc(NCc4ccc5c(c4)OCO5)nn23)cc1OC [BF000146114, N-(1,3-benzodioxol-5-ylmethyl)-3-[3,4-dimethoxy-phenyl)-imidazo[1,2-b]pyridazin-6-amine]	–	6220 nM
COc1cc(-c2cnc3ccc(NCc4ccc5c(c4)OCO5)nn23)ccc1O [BF000146126, 4-[6-(1,3-benzodioxol-5-ylmethyl-amino)-imidazo[1,2-b]pyridazin-3-yl]-2-methoxy-phenol]	–	1310 nM
CC(=O)Nc1cccc(-c2cnc3ccc(NC4CCOCC4)nn23)c1 [BF000146155, N-[3-[6-(tetra-hydropyran-4-ylamino)-imidazo[1,2-b]pyridazin-3-yl)phenyl]-acetamide]	–	397 nM
COc1cccc(-c2cnc3ccc(NC4CCOCC4)nn23)c1 [BF000146183, 3-(3-methoxy-phenyl)-N-tetrahydro-pyran-4-yl-imidazo[1,2-b]pyridazin-6-amine]	–	829 nM
COc1ccc(-c2cnc3ccc(NCCCO)nn23)cc1OC [BF000146224, 3-[[3-(3,4-dimethoxy-phenyl)-imidazo[1,2-b]pyridazin-6-yl]-amino]-propan-1-ol]	–	725 nM
COc1cc(-c2cnc3ccc(NCCCO)nn23)ccc1O [BF000146250, 4-[6-(3-hydroxy-propylamino)-imdazo[1,2-b]pyridazin-3-yl]-2-methoxy-phenol]	–	206 nM
CCCNc1ccc2ncc(-c3ccncc3)n2n1 [BF000147056, N-propyl-3-(4-pyridyl)-imidazo[1,2-b]pyridazin-6-amine]	–	217 nM
CC(=O)c1cccc(-c2cnc3ccc(NCc4ccc5c(c4)OCO5)nn23)c1 [BF000147140, 1-[3-[6-(1,3-benzodioxol-5-ylmethyl-amino)-imidazo[1,2-b]pyridazin-3-yl]phenyl]-ethanone]	–	3190 nM
COc1cc(-c2cnc3ccc(NC4CCOCC4)nn23)ccc1O [BF000147168]	–	113 nM
COc1cc(-c2cnc3ccc(NC4CCOCC4)nn23)cc(OC)c1OC [BF000147394, N-tetrahydro-pyran-4-yl-3-(3,4,5-trimethoxy-phenyl)-imidazo[1,2-b]pyridazin-6-amine]	–	503 nM

Second part, the compound after the results:

IC50 [1]	IC50 [2]	SMILES
–	105 nM	c1csc(CNc2ccc3ncc(-c4ccncc4)n3n2)c1 [BF000145941, 3-(4-pyridyl)-N-(2-thienyl-methyl)-[1,2-a]pyridazin-6-amine]
–	1420 nM	Nc1cccc(-c2cnc3ccc(NC4CCOCC4)nn23)c1 [BF000146142, 3-(3-aminophenyl)-N-tetrahydro-pyran-4-yl-imidazo[1,2-b]pyridazin-6-amine]
–	480 nM	COc1ccc(-c2cnc3ccc(NC4CCOCC4)nn23)cc1OC [BF000146153, 3-(3,4-dimethoxy-phenyl)-N-tetrahydro-pyran-4-yl-imidazo[1,2-b]pyridazin-6-amine]
–	708 nM	OCCCNc1ccc2ncc(-c3ccc4c(c3)OCO4)n2n1 [BF000146218, 3-[[3-(1,3-benzodioxol-5-yl)-imidazo[1,2-b]pyridazin-6-yl]amino]-propan-1-ol]
–	792 nM	CC(=O)Nc1cccc(-c2cnc3ccc(N[C@H](CO)C(C)C)nn23)c1 [BF000146300, N-[3-[6-[[(1S)-1-(hydroxy-methyl)-2-methyl-propyl]-amino]-imidazo[1,2-b]pyridazin-3-yl]-phenyl]acetamide]
–	443 nM	COc1cc(-c2cnc3ccc(N[C@H](CO)C(C)C)nn23)ccc1O [BF000146319, 4-[6-[[(1S)-1-(hydroxy-methyl)-2-methyl-propyl]-amino]-imidazo[1,2-b]pyridazin-3-yl]-2-methoxy-phenol]
–	355 nM	c1ccc(CNc2ccc3ncc(-c4ccc5c(c4)OCO5)n3n2)nc1 [BF000146330, 3-(1,3-benzodioxol-5-yl)-N-(2-pyridyl-methyl)-imidazo[1,2-b]pyridazin-6-amine]
–	721 nM	COc1ccc(-c2cnc3ccc(NCc4cccs4)nn23)cc1OC [BF000146992, 3-(3,4-dimetboxy-phenyl)-N-(2-thienyl-methyl)-imidazo[1,2-b]pyridazin-6-amine]
–	285 nM	CCCNc1ccc2ncc(-c3ccc(OC)c(OC)c3)n2n1 [BF000147061, 3-(3,4-dimethoxy-phenyl)-N-propyl-imidazo[1,2-b]pyridazin-6-amine]
–	592 nM	CCCNc1ccc2ncc(-c3cccc(O)c3)n2n1 [BF000147075, 3-[6-(propylamino)-imidazo[1,2-b]pyridazin-3-yl]phenol]
–	81.6 nM	CCCNc1ccc2ncc(-c3ccc(O)c(OC)c3)n2n1 [BF000147080, 2-methoxy-4-[6-(propyl-amino)-imidazo[1,2-b]pyridazin-3-yl]phenol]
–	406 nM	CCCNc1ccc2ncc(-c3cccc(C(C)=O)c3)n2n1 [BF000147088, 1-[3-[6-(propyl-amino)-imidazo[1,2-b]pyridazin-3-yl]phenyl]-ethanone]
–	494 nM	COc1ccc(-c2cnc3ccc(NCc4ccccn4)nn23)cc1OC [BF000147233, 3-(3,4-dimethoxy-phenyl)-N-(2-pyridyl-methyl)-imidazo[1,2-b]pyridazin-6-amine]
–	1310 nM	COc1cc(-c2cc(-c3ccccc3)cnc2N)cc(OC)c1OC [BF000312489, 5-phenyl-3-(3,4,5-trimethoxy-phenyl)-pyridin-2-amine]
–	232 nM	COc1cc(-c2cc(-c3ccc(N4CCN(C)CC4)cc3)cnc2N)cc(OC)c1OC [BF000312520, 5-[4-(4-methyl-piperazin-1-yl)phenyl]-3-(3,4,5-trimethoxy-phenyl)-pyridin-2-amine]
–	709 nM	COc1cc(-c2cc(-c3ccc(OCCCN(C)C)nc3)cnc2N)cc(OC)c1OC [BF000312521, 5-[6-(3-(dimethyl-amino)-propoxy]-3-pyridyl]-3-(3,4,5-trimethoxy-phenyl)-pyridin-2-amine]
–	526 nM	COc1cc(-c2cc(-c3cccc(O)c3)cnc2N)cc(OC)c1OC [BF000312527, 3-[6-amino-5-(3,4,5-trimethoxy-phenyl)-3-pyridyl]-phenol]
–	494 nM	COc1cc(-c2cc(-c3cccc(C(N)=O)c3)cnc2N)cc(OC)c1OC [BF000312539, 3-[6-amino-5-(3,4,5-trimethoxy-phenyl)-3-pyridyl]-benzamide]
–	458 nM	COc1cc(-c2cc(-c3ccc(C(N)=O)cc3)cnc2N)cc(OC)c1OC [BF000312540, 4-[6-amino-5-(3,4,5-trimethoxy-phenyl)-3-pyridyl]-benzamide]
–	377 nM	COc1cc(-c2cc(-c3ccc(C(=O)NC4CC4)cc3)cnc2N)cc(OC)c1OC [BF000312541, 4-[6-amino-5-(3,4,5-trimethoxy-phenyl)-3-pyridyl]-N-cyclopropyl-benzamide]
